Columns and labels:
human liver FBPase = biological target: T1, human liver FBPase (Homo sapiens, UniProt P09467); test: Inhibition of human liver FBPase (coupled spectrophotometric assay); format: biochemical; settings: for inhibition of hlFBPase (FIG. 2): result in words
T1 construct: made in house; host or cells: E. coli BL21
T1 sequence (P09467 2-338 limits assumed): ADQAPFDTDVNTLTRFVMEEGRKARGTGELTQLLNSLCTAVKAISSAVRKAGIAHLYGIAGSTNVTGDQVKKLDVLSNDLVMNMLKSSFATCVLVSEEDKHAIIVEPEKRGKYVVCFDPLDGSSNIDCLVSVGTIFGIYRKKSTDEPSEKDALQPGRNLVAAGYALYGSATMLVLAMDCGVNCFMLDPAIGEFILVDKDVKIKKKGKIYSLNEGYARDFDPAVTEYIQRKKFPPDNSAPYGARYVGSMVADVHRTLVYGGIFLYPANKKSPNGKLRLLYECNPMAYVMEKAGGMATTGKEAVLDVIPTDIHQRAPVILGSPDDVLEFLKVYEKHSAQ

mouse liver FBPase = biological target: T2, mouse liver FBPase (Mus musculus, UniProt Q9QXD6); test: In vitro inhibition of mouse liver FBPase; format: biochemical
T2 construct: This partially purified fraction was used for enzyme assays; from tissue; host or cells: mouse liver
T2 sequence (Q9QXD6 2-338 limits assumed): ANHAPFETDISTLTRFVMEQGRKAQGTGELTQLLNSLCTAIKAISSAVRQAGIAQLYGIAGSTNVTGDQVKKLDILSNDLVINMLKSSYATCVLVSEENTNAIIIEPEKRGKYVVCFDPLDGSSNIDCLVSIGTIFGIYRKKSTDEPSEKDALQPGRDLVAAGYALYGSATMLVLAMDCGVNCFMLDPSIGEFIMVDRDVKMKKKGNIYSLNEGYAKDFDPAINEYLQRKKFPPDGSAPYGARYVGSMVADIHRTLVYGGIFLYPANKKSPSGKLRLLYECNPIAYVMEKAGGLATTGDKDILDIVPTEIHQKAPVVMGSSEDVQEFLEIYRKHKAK
Method: (§1) Mouse liver FBPase was obtained by homogenizing freshly isolated mouse liver in 100 mM Tris-HCl buffer, pH 7.4, containing 1 mM EGTA, and 10% glycerol. […] This fraction was redissolved in the homogenization buffer and desalted on a PD-10 gel filtration column (Biorad) eluted with same. This partially purified fraction was used for enzyme assays. Both rat liver and mouse liver FBPase were assayed as described for human liver FBPase.

[1] = biological target: T3, allosteric AMP binding site of hlFBPase (Homo sapiens, UniProt P09467); test: AMP site binding: displacement of 3H-AMP from hlFBPase; settings: for EC50: 3H-AMP, hlFBPase, read-out: ED50 for AMP displacement; for displacement of AMP from hlFBPase (FIG. 3): result in words
T3 construct: made in house; host or cells: E. coli BL21
T3 sequence (P09467 2-338 limits assumed): T1 sequence (P09467 2-338 limits assumed)
Method: To determine whether compounds bind to the allosteric AMP binding site of hlFBPase, the enzyme was incubated with radiolabeled AMP in the presence of a range of test compound concentrations. The reaction mixtures consisted of […] ^3H-AMP (54 mCi/mmol) and […] test compound in 25 mM Tris-HCl, pH 7.4, 100 mM KCl and 1 mM MgCl2. 1.45 mg of homogeneous FBPase (±1 nmole) was added last. After a 1 minute incubation, AMP bound to FBPase was separated from unbound AMP by means of a centrifugal ultrafiltration unit (“Ultrafree-MC”, Millipore) used according to the instructions of the manufacturer. The radioactivity in aliquots (100 μl) of the upper compartment of the unit (the retentate, which contains enzyme and label) and the lower compartment (the filtrate, which contains unbound label) were quantified using a Beckman liquid scintillation counter. The amount of AMP bound to the enzyme was estimated by comparing the counts in the filtrate (the unbound label) to the total counts in the retentate.

rat liver FBPase = biological target: T4, rat liver FBPase (Rattus norvegicus, UniProt P19112); test: In vitro inhibition of rat liver FBPase; format: biochemical
T4 construct: made in house; host or cells: E. coli BL21
T4 sequence (P19112 2-363 limits assumed): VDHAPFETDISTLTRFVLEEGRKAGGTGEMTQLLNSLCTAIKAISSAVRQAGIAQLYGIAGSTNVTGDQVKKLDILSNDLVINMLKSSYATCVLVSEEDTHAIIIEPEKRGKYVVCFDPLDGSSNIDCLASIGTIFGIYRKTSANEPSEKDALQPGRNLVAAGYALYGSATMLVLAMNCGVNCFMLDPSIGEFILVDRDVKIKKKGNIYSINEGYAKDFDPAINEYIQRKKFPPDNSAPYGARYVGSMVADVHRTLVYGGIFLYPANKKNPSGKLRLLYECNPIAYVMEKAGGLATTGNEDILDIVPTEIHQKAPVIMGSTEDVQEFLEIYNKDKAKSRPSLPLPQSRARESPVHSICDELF
Method: as §1

rat hepatocytes = test: Inhibition of gluconeogenesis (glucose production from lactate/pyruvate) in rat hepatocytes; format: cell-based; settings: from lactate/pyruvate, isolated rat hepatocytes
Method: Hepatocytes were prepared from overnight fasted Sprague-Dawley rats (250-300 g) according to the procedure of Berry and Friend (Berry, M. N., Friend, D. S., J. Cell. Biol. 1969, 43, 506-520) as modified by Groen (Groen, […]., Eur. J. Biochem. 1982, 122, 87-93). […] Incubations were carried out in a 95% oxygen, 5% carbon dioxide atmosphere in closed, 50-mL Falcon tubes submerged in a rapidly shaking water bath (37° C.). After 1 hour, an aliquot (0.25 mL) was removed, transferred to an Eppendorf tube and centrifuged. 50 μl of supernatant was then assayed for glucose content using a Sigma Glucose Oxidase kit as per the manufacturer's instructions.

[2] = Estimation of the oral bioavailability of prodrugs of phosphonic acids (urinary recovery); format: in vivo, rat; settings: rat, estimated from urinary recovery vs intravenous parent
Method: Prodrugs were dissolved in 10% ethanol/90% polyethylene glycol (mw 400) and administered by oral gavage at doses of approximately 20 or 40 mg/kg parent compound equivalents to 6-hour fasted, Sprague Dawley rats (220-240 g). The rats were subsequently placed in metabolic cages and urine was collected for 24 hours. The quantity of parent compound excreted into urine was determined by HPLC analysis. An ODS column eluted with a gradient from potassium phosphate buffer, pH 5.5 to acetonitrile was employed for these measurements. Detection was at 310-325 nm. […] Parent compounds were typically dissolved in dimethyl sulfoxide, and administered via the tail vein in animals that were briefly anesthetized with halothane.

SMILES	IC50 (human liver FBPase)	IC50 (mouse liver FBPase)	IC50 (rat liver FBPase)	also measured
Nc1ncnc2c1ncn2[C@@H]1O[C@H](COP(=O)(O)O)[C@@H](O)[C@H]1O [AMP, reference compound]	1 µM	–	–	inhibition of hlFBPase (FIG. 2) (human liver FBPase): dose-dependent inhibition
Nc1ncnc2c1nc(-c1ccc(P(=O)(O)O)o1)n2CCC1CCCCC1 [Compound 2.2, N^9-(2-cyclohexylethyl)-8-(2-(5-phosphono)furanyl)adenine]	–	> 20 µM	> 20 µM	EC50 [1]: 35 µM; displacement of AMP from hlFBPase (FIG. 3) [1]: displaced AMP from hlFBPase in a dose-dependent manner; IC50 (rat hepatocytes; Hepatocyte): 90 µM
Nc1ncnc2c1nc(-c1ccc(P(=O)(O)O)o1)n2Cc1ccc2ccccc2c1 [Compound 2.3, N^9-(2-naphthylmethyl)-8-(2-(5-phosphono)furanyl)adenine]	3.3 µM	> 20 µM	> 20 µM	–
CCn1c(-c2ccc(P(=O)(O)O)o2)nc2c(N)ncnc21 [Compound 2.5, N^9-ethyl-8-(2-(5-phosphono)furanyl)adenine]	–	–	–	inhibition of hlFBPase (FIG. 2) (human liver FBPase): dose-dependent inhibition
CC(C)Cn1c(-c2ccc(P(=O)(O)O)o2)nc2c(N)ncnc21 [Compound 2.6, N^9-isobutyl-8-(2-(5-phosphono)furanyl)adenine]	–	–	–	IC50 (rat hepatocytes): 18 µM
Nc1ncnc2c1nc(-c1ccc(P(=O)(O)O)o1)n2C1CCCC1 [Compound 2.10, N^9-cyclopentyl-8-(2-(5-phosphono)furanyl)adenine]	2 µM	> 20 µM	–	IC50 (rat hepatocytes; Hepatocyte): 24 µM
CC(C)(CO)Cn1c(-c2ccc(P(=O)(O)O)o2)nc2c(N)ncnc21 [Compound 2.13, N^9-(1-(3-hydroxyl-2,2-dimethyl)propyl)-8-(2-(5-phosphono)-furanyl)adenine]	4.5 µM	> 20 µM	–	inhibition of hlFBPase (FIG. 2) (human liver FBPase): dose-dependent inhibition; IC50 (rat hepatocytes; Hepatocyte): 50 µM
CC(C)(CCl)Cn1c(-c2ccc(P(=O)(O)O)o2)nc2c(N)ncnc21 [Compound 2.14, N^9-(1-(3-chloro-2,2-dimethyl)propyl)-8-(2-(5-phosphono)-furanyl)adenine]	0.9 µM	> 20 µM	> 20 µM	IC50 (rat hepatocytes; Hepatocyte): 7.5 µM
CC1(C)C=CCC(C)(Cn2c(-c3ccc(P(=O)(O)O)o3)nc3c(N)ncnc32)C1 (centres unmarked) [Compound 2.16, N^9-(1,5,5-trimethyl-3-cyclohexenyl)methyl-8-(2-(5-phosphono)furanyl)-adenine]	1.4 µM	> 20 µM	> 20 µM	IC50 (rat hepatocytes; Hepatocyte): 12 µM
Nc1ncnc2c1nc(NCCP(=O)(O)O)n2[C@@H]1O[C@H](CO)[C@@H](O)[C@H]1O [Compound 4.1, 8-(2-phosphonoethylamino)-adenosine]	100 µM	> 20 µM	> 20 µM	–
CC(C)(C)Cn1c(-c2ccc(P(=O)(OCOC(=O)C(C)(C)C)OCOC(=O)C(C)(C)C)o2)nc2c(N)ncnc21 [Compound 16.5, 6-Amino-9-neopentyl-8-(2-(5-dipivaloxymethylphosphono)furanyl)purine]	–	–	–	oral bioavailability [2]: 5.3%

More lines, main results first:

IC50 (human liver FBPase)	IC50 (mouse liver FBPase)	IC50 (rat liver FBPase)	SMILES	also measured
10 µM	> 20 µM	> 20 µM	CC(C)(C)Cn1c(COCP(=O)(O)O)nc2c(N)ncnc21 [Compound 5.5, N^9-neopentyl-8-(phosphonomethoxymethyl)-adenine]	–
23 µM	> 20 µM	> 20 µM	Nc1ncnc2c1nc(SCP(=O)(O)O)n2CCC1CCCCC1 [Compound 8.1, N^9-(2-cyclohexylethyl)-8-(phosphonomethylthio)adenine]	–
50 µM	> 20 µM	> 20 µM	CN(C)c1ncnc2c1nc(-c1ccc(P(=O)(O)O)o1)n2CCc1ccccc1 [Compound 10.1, 6-Dimethylamino-N^9-phenethyl-8-(2-(5-phosphono)furanyl)purine]	–
0.7 µM	> 20 µM	–	CSc1nc(N)c2nc(-c3ccc(P(=O)(O)O)o3)n(CC(C)C)c2n1 [Compound 11.1, 6-amino-N^9-isobutyl-2-methylthio-8-(2-(5-phosphono)-furanyl)purine]	–
13 µM	> 100 µM	–	CC(C)(C)Cn1c(-c2oc(P(=O)(O)O)c(Cl)c2Cl)nc2c(N)ncnc21 [Compound 12.1, 6-amino-N^9-neopentyl-8-(2-(3,4-dichloro-5-phosphono)furanyl)purine]	–
12 µM	–	–	NC(=O)c1ncn([C@@H]2O[C@H](COP(=O)(O)O)[C@@H](O)[C@H]2O)c1N [ZMP, aminoimidazolecarboxamideriboside monophosphate, reference compound]	EC50 [1]: 250 µM; displacement of AMP from hlFBPase (FIG. 3) [1]: displaced AMP from hlFBPase in a dose-dependent manner

— US7285543B2, “Purine inhibitors of fructose-1,6-bisphosphatase” (Metabasis Therapeutics, Inc., priority 1997, dated 2007)
